In publication PMC11988454, “Discovery of synthetic small molecules targeting the central regulator of Salmonella pathogenicity” (Science Advances, 2025):
pIC50: −log10 of the molar value.

Experiments:
HeLa cells [1] = experiment: In vitro toxicity, ApoTox-Glo assay; format: cell-based
HilD = biological target: T1, HilD (Salmonella typhimurium, UniProt E1WAC0); experiment: Whole-cell HilD activity assay (PhilA-sfGFP activation); format: cell-based, S. Typhimurium
T1 construct: endogenous in cells; host or cells: S. Typhimurium SL1344 strain PhilA-sfGFP
T1 sequence (E1WAC0 whole entry): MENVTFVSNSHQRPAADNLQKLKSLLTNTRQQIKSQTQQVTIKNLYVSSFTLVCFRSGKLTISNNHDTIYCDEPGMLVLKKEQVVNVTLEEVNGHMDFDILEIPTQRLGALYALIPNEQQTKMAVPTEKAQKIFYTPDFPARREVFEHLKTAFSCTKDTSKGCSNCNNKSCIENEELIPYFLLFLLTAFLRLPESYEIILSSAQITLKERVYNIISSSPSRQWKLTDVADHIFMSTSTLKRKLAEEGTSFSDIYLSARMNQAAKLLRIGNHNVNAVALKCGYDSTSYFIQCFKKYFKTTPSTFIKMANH
Experimental: A whole-cell reporter gene assay was used to quantify HilD transcriptional activity. Strain PhilA-sfGFP and the isogenic ΔhilD PhilA-sfGFP were used for this purpose. Cultures were performed in 1 ml of LB supplemented with 0.3 M NaCl. Compounds at different concentrations or 1% (v/v) DMSO were added to the corresponding tubes. Cultures were incubated at 37°C and 180 rpm for 5 hours. Cells were pelleted, resuspended in 100 μl of PBS, and then transferred into a 96-well black clear-bottom plate (Thermo Fisher Scientific, USA). Fluorescence intensity was measured with a Tecan Spark microplate reader with an excitation wavelength of 485 nm and an emission wavelength of 510 nm. Dose-response curves and IC50 values were calculated using CDD Vault.

HilD variants = experiment: Plasmid-based whole-cell assay, most frequent HilD substitutions; set-up: species or system S. enterica; conditions: C26 100 μM, 19 functional variants
Experimental: The retrieved sequences and script used to determine the most frequent point mutations in HilD can be accessed on the Zenodo repository. Site-directed mutagenesis was performed using KOD polymerase (Novagen). PhilA activation was monitored as described above using the plasmid-based whole-cell fluorescence assay.

HeLa cells [2] = experiment: Cytotoxicity, CellTox Green Cytotoxicity Assay, HeLa; format: cell-based; conditions: exposure time 18 h
Experimental: In vitro toxicity of compound C26 was assessed in HeLa cells (ATCC CCL-2) using the ApoTox-Glo Triplex Assay and in macrophages RAW 264.7-LgBiT using the CellTox Green Cytotoxicity Assay (Promega, USA) according to the manufacturer’s instructions. The screening of in vitro toxicity of the compound analogs was performed with the CellTox Green Cytotoxicity Assay (Promega, USA) according to the manufacturer’s instructions. Cells (10^4 cells per well) were seeded into a 96-well plate and incubated for 24 hours at 37°C, 5% (v/v) CO2. Cells were then treated with the compound at different concentrations or 1% (v/v) DMSO in Dulbecco’s modified Eagle’s medium (DMEM) without phenol red at the desired exposure time. Fluorescence intensity was measured with a TECAN Spark microplate reader. Cytotoxicity [relative fluorescence units (RFU)] and viability (RFU) values were plotted to calculate the TC50 using GraphPad Prism 10.1.1.
Compound concentration (µM) […]
in vitro cytotoxicity of C26 and analogs. Cytotoxicity assessed with CellTox™ Green Cytotoxicity Assay with an exposure time of 18 h. N = 3 biological replicates. Data were plotted and TC50 values were generated with GraphPad Prism 10.1.1.
(1 picture or pasted object on this page, not shown here)

CN(CC(=O)NCc1ccc2c(c1)OCO2)Cc1ccc(Br)s1 [C26, N-(benzo[d][1,3]dioxol-5-ylmethyl)-2-{[(5-bromothiophen-2-yl)methyl](methyl)amino}acetamide]
TC50 viability (HeLa cells [1]; 12 hours exposure): could not be calculated because of low toxicity levels | TC50 viability (HeLa cells [1]; 18 hours exposure): 98 µM | pIC50 (HilD): 4.77 | activity on the most frequent HilD substitution variants (HilD variants): inhibitory activity on all the tested variants at a level similar to that of the WT reference sequence | TC50 cytotoxicity (HeLa cells [2]): > 100 µM
